Experimental data taken from patent US9828350B2, “5,6-dihydro-2H-[1,4]oxazin-3-yl-amine derivatives useful as inhibitors of beta-secretase (BACE)” (Janssen Pharmaceutica NV, priority 2010, dated 2017).

Tests used:
Abeta 1-42 = assay: Cellular αLisa assay in SKNBE2 cells, Abeta 1-42; format: cell-based, human; conditions: incubated for 18 hours; for IC50: Homo sapiens, SKNBE2, 18 h, read-out: Cellular αLisa assay in SKNBE2 cells Abeta 42 pIC50 (converted)
Protocol: (§1) Cellular αLisa Assay in SKNBE2 Cells
(§2) In two αLisa assays the levels of Abeta total and Abeta 1-42 produced and secreted into the medium of human neuroblastoma SKNBE2 cells are quantified. The assay is based on the human neuroblastoma SKNBE2 expressing the wild type Amyloid Precursor Protein (hAPP695). The compounds are diluted and added to these cells, incubated for 18 hours and then measurements of Abeta 1-42 and Abeta total are taken. Abeta total and Abeta 1-42 are measured by sandwich αLisa. αLisa is a sandwich assay using biotinylated antibody AbN/25 attached to streptavidin coated beads and antibody Ab4G8 or cAb42/26 conjugated acceptor beads for the detection of Abeta total and Abeta 1-42 respectively. In the presence of Abeta total or Abeta 1-42, the beads come into close proximity. The excitation of the donor beads provokes the release of singlet oxygen molecules that trigger a cascade of energy transfer in the acceptor beads, resulting in light emission. Light emission is measured after 1 hour incubation (excitation at […] and emission at 615 nm).

[1] = target: recombinant BACE1 protein (Homo sapiens, UniProt P56817); assay: Biochemical FRET based assay; conditions: recombinant BACE1 1 μg/ml, 120 minutes at room temperature, pH 5.0; for IC50: read-out: Biochemical FRET based assay pIC50 (converted)
Chain of recombinant BACE1 protein (P56817 46-501): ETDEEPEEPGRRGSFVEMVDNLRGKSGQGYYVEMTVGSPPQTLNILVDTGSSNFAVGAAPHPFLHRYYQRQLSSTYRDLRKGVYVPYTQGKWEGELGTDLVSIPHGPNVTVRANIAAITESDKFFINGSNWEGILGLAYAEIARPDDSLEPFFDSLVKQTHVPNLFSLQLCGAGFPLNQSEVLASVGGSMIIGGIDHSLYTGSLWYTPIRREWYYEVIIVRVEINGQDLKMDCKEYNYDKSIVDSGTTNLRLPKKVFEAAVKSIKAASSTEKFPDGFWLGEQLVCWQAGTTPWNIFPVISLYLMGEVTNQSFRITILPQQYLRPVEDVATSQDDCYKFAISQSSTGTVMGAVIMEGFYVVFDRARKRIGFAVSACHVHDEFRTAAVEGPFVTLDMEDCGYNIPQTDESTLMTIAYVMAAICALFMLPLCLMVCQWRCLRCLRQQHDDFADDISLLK
From the text: Biochemical FRET Based Assay
This assay is a Fluorescence Resonance Energy Transfer Assay (FRET) based assay. The substrate for this assay is an APP derived 13 amino acids peptide that contains the ‘Swedish’ Lys-Met/Asn-Leu mutation of the amyloid precursor protein (APP) beta-secretase cleavage site. This substrate also contains two fluorophores: (7-methoxycoumarin-4-yl) acetic acid (Mca) is a fluorescent donor with excitation wavelength at 320 nm and emission at 405 nm and 2,4-Dinitrophenyl (Dnp) is a proprietary quencher acceptor. […] Upon cleavage by BACE1, the fluorophore Mca is separated from the quenching group Dnp, restoring the full fluorescence yield of the donor. The increase in fluorescence is linearly related to the rate of proteolysis.
Briefly in a 384-well format recombinant BACE1 protein in a final concentration of 1 μg/ml is incubated for 120 minutes at room temperature with […] substrate in incubation buffer (40 mM Citrate buffer pH 5.0, 0.04% PEG, 4% DMSO) in the absence or presence of compound. Next the amount of proteolysis is directly measured by fluorescence measurement at T=0 and T=120 (excitation at 320 nm and emission at 405 nm). Results are expressed in RFU (Relative Fluorescence Units), as difference between T120 and TO.

Abeta total = assay: Cellular αLisa assay in SKNBE2 cells, Abeta total; format: cell-based, human; conditions: incubated for 18 hours; for IC50: Homo sapiens, SKNBE2, 18 h, read-out: Cellular αLisa assay in SKNBE2 cells Abetatotal pIC50 (converted)
Protocol: as §1, §2

Compound	Cellular αLisa assay in SKNBE2 cells Abeta 42 pIC50 (Abeta 1-42)	IC50 [1] [nM]	Cellular αLisa assay in SKNBE2 cells Abetatotal pIC50 (Abeta total)	IC50 (Abeta 1-42) [nM]	IC50 (Abeta total) [nM]	Biochemical FRET based assay pIC50 [1]
COc1cncc(-c2cccc(C3(C)N=C(N)COC3C(F)(F)F)c2)c1 (single isomer, unassigned) [Compound 102]	<5	> 30200	<5			
COc1cncc(-c2cccc(C3(C)N=C(N)COC3C(F)(F)F)c2)c1 (single isomer, unassigned) [Compound 103]	6.38	2090	6.35			
COc1cncc(-c2cccc(C3(C)N=C(N)COC3C(F)(F)F)c2)c1 (single isomer, unassigned) [Compound 104]	5.8	9330	5.82			
CC1(c2cc(-c3cncnc3)ccc2F)N=C(N)COC1(F)C(F)(F)F (single isomer, unassigned) [Compound 111]		1480		437	490	
CC1(c2cccc(-c3cncnc3)c2)N=C(N)COC1(F)C(F)(F)F (single isomer, unassigned) [Compound 116]	5.18	> 30200	5.06			
COc1cncc(-c2cccc(C3(C)N=C(N)COC3(F)C(F)(F)F)c2)c1 (single isomer, unassigned) [Compound 119]	5.62	11200	5.67			
CC1(c2cccc(NC(=O)c3ccc(Cl)cn3)c2)N=C(N)COC1F (single isomer, unassigned) [Compound 122]	5.19		5.04			<4.52
CC1(c2cc(-c3cncnc3)ccc2F)N=C(N)COC1F (single isomer, unassigned) [Compound 127]	<5	> 30200	<5			
COc1cnc(C(=O)Nc2cccc(C3(C)N=C(N)COC3F)c2)cn1 (single isomer, unassigned) [Compound 131]	7.54	35.5	7.52			
COc1cnc(C(=O)Nc2cccc(C3(C)N=C(N)COC3F)c2)cn1 (single isomer, unassigned) [Compound 132]	6.35	1100	6.38			
CC1(c2cc(NC(=O)c3ncc(Cl)cc3F)ccc2F)N=C(N)COC1F (single isomer, unassigned) [Compound 133]	8.18	25.7	8.21			
CC1(c2cccc(-c3cncnc3)c2)N=C(N)COC1(F)C(F)(F)F (single isomer, unassigned) [Compound 139]	<5	> 30200	<5			
CC1(c2cccc(-c3cncnc3)c2)N=C(N)COC1(F)C(F)(F)F (single isomer, unassigned) [Compound 140]	<5	> 30200	<5			
COc1cncc(-c2cccc(C3(C)N=C(N)COC3(F)C(F)(F)F)c2)c1 (single isomer, unassigned) [Compound 141]	<5	> 30200	<5			
COc1cncc(-c2cccc(C3(C)N=C(N)COC3(F)C(F)(F)F)c2)c1 (single isomer, unassigned) [Compound 142]	<5	> 30200	<5			
CC1(c2cccc(NC(=O)c3ccc(Cl)cn3)c2)COC(F)(C(F)(F)F)C(N)=N1 (single isomer, unassigned) [Compound 154]	<5		<5			<4.52
COc1cncc(-c2ccc(F)c(C3(C)COCC(N)=N3)c2)c1 (single isomer, unassigned) [Compound 156]	7.02		7.1			5.69
CC1(c2cccc(NC(=O)c3ccc(Cl)cn3)c2)COC(F)(C(F)(F)F)C(N)=N1 (single isomer, unassigned) [Compound 157]	<5		<5			<4.52
COc1cnc(C(=O)Nc2cccc(C3(C)COC(F)(C(F)(F)F)C(N)=N3)c2)cn1 (single isomer, unassigned) [Compound 158]		> 30200		> 10000	> 10000	
CC1(c2cccc(NC(=O)c3ncc(Cl)cc3F)c2)N=C(N)COC1F (single isomer, unassigned) [Compound 163]	8.01	40.7	8.05			
CC1(c2cccc(NC(=O)c3ncc(Cl)cc3F)c2)N=C(N)COC1F (single isomer, unassigned) [Compound 164]	<5	> 30200	<5			
CC1(c2cccc(NC(=O)c3ncc(Cl)cc3F)c2)N=C(N)COC1(F)C(F)(F)F (single isomer, unassigned) [Compound 173]	8.11	21.9	8.07			
CC1(c2cccc(NC(=O)c3ncc(Cl)cc3F)c2)N=C(N)COC1(F)C(F)(F)F (single isomer, unassigned) [Compound 175]	5.18	295	5.24			
COc1cnc(C(=O)Nc2cccc(C3(C)N=C(N)COC3(F)C(F)(F)F)c2)cn1 (single isomer, unassigned) [Compound 176]	6.34	1290	6.38			
COc1cnc(C(=O)Nc2cccc(C3(C)N=C(N)COC3(F)C(F)(F)F)c2)cn1 (single isomer, unassigned) [Compound 177]	7.83	25.1	7.84			
COc1cnc(C(=O)Nc2cccc(C3(C)N=C(N)COC3(F)C(F)(F)F)c2)cn1 (single isomer, unassigned) [Compound 178]	5.33	20000	5.35			
COc1cnc(C(=O)Nc2cccc(C3(C)N=C(N)COC3(F)C(F)(F)F)c2)cn1 (single isomer, unassigned) [Compound 179]	<5	> 30200	<5			
CC1(c2cccc(NC(=O)c3ccncn3)c2)N=C(N)COC1(F)C(F)(F)F (single isomer, unassigned) [Compound 188]	6.91	437	6.93			
CC1(c2cccc(NC(=O)c3ccncn3)c2)N=C(N)COC1(F)C(F)(F)F (single isomer, unassigned) [Compound 190]	5.2	> 30200	5.25			
